Measurements published in patent publication US9346795B2, “Substituted sulfonamides useful as antiapoptotic Bcl inhibitors” (Bristol-Myers Squibb Company, priority 2011, dated 2016).
pIC50: −log10 of the molar value.

Key:
Bcl-xL = Bcl-xL (Homo sapiens (Human), UniProt Q07817); assay: Bcl-xL/Bim Fluorescence Resonance Energy Transfer Assay (FRET); format: binding
Procedure, shortened: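 IC50 values come from non-linear regression over an eleven-point compound titration. Each compound was first incubated with biotinylated Bcl-xL and Bim for 60 min at room temperature. FRET was then detected after a 30 min dark incubation with streptavidin-terbium.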

Bcl-2 = Bcl-2 (Homo sapiens (Human), UniProt P10415); assay: Bcl-2/Bim Fluorescence Polarization Assay (FPA); format: binding
Chain of Bcl-2 (P10415 whole entry): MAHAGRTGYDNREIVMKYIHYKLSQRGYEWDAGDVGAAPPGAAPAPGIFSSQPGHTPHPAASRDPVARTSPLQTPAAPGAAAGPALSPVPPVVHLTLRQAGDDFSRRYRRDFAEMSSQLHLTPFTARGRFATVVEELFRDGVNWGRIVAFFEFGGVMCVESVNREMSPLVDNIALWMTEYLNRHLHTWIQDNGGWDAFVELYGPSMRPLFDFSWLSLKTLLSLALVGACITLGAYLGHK

Chain of Bcl-xL (Q07817 whole entry): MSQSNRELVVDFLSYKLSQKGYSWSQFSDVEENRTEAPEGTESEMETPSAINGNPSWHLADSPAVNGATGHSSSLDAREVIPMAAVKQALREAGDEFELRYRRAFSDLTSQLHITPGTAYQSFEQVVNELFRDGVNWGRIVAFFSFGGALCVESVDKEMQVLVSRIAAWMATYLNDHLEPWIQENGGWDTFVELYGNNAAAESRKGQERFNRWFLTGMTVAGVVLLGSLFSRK

| SMILES | pIC50 (Bcl-xL) | pIC50 (Bcl-2) |
| --- | --- | --- |
| CCCCN(CCCC)C(=O)c1cc(C)n(-c2ccc(C(=O)NS(=O)(=O)c3ccc4ccccc4c3)cc2C(=O)N2CCc3ccccc3C2)n1 [Example 164, N,N-Dibutyl-5-methyl-1-(4-(naphthalen-2-ylsulfonylcarbamoyl)-2-(1,2,3,4-tetrahydroisoquinoline-2-carbonyl)phenyl)-1H-pyrazole-3-carboxamide] | 7.52 | 6.64 |
| CCCCN(CCCC)C(=O)c1nn(-c2ccc(C(=O)NS(=O)(=O)c3ccc4c(c3)CCN4Cc3ccc(Cl)c(Cl)c3)cc2C(=O)N2CCc3ccccc3C2)c(C)c1Cl [Example 59, N,N-dibutyl-4-chloro-1-(4-(1-(3,4-dichlorobenzyl)indolin-5-ylsulfonylcarbamoyl)-2-(1,2,3,4-tetrahydroisoquinoline-2-carbonyl)phenyl)-5-methyl-1H-pyrazole-3-carboxamide] | 7.40 | 7.70 |
| CCCCN(CCCC)C(=O)c1cn(C)c(-c2ccc(C(=O)NS(=O)(=O)c3ccc4cccc(I)c4c3)cc2C(=O)N2Cc3ccccc3C[C@H]2CN)n1 [Example 282, 2-(2-((S)-3-(Aminomethyl)-1,2,3,4-tetrahydroisoquinoline-2-carbonyl)-4-(8-iodonaphthalen-2-ylsulfonylcarbamoyl)phenyl)-N,N-dibutyl-1-methyl-1H-imidazole-4-carboxamide] | 8.00 | 8.16 |
| CCCCN(CCCC(F)(F)F)C(=O)c1nn(-c2ccc(C(=O)NS(=O)(=O)c3ccc4ccccc4c3)cc2C(=O)N2CCc3ccccc3C2)c(C)c1Cl [Example 128, N-butyl-4-chloro-5-methyl-1-(4-(naphthalen-2-ylsulfonylcarbamoyl)-2-(1,2,3,4-tetrahydroisoquinoline-2-carbonyl)phenyl)-N-(4,4,4-trifluorobutyl)-1H-pyrazole-3-carboxamide] | 7.10 | 6.96 |
| CCCCN(CCCC)C(=O)c1nn(-c2ccc(C(=O)NS(=O)(=O)c3ccc4c(c3)c(I)cn4CC)cc2C(=O)N2CCc3ccccc3C2)c(C)c1Cl [Example 84, N,N-dibutyl-4-chloro-1-(4-(1-ethyl-3-iodo-1H-indol-5-ylsulfonylcarbamoyl)-2-(1,2,3,4-tetrahydroisoquinoline-2-carbonyl)phenyl)-5-methyl-1H-pyrazole-3-carboxamide] | 7.10 | 8.11 |
| CCCCN(CCCC)C(=O)c1nn(-c2ccc(C(=O)NS(=O)(=O)c3ccc4cccc(Cl)c4c3)cc2C(=O)N2Cc3ccccc3C[C@H]2CN)c(C)c1Cl [Example 203, 1-(2-((S)-3-(aminomethyl)-1,2,3,4-tetrahydroisoquinoline-2-carbonyl)-4-(8-chloronaphthalen-2-ylsulfonylcarbamoyl)phenyl)-N,N-dibutyl-4-chloro-5-methyl-1H-pyrazole-3-carboxamide] | 8.00 | 8.00 |
| CCCCN(CCCC)C(=O)c1nn(-c2ccc(C(=O)NS(=O)(=O)c3ccc4c(Cl)cccc4c3)cc2C(=O)N2CCc3ccccc3C2)c(C)c1Cl [Example 2, N,N-dibutyl-4-chloro-1-(4-(5-chloronaphthalen-2-ylsulfonylcarbamoyl)-2-(1,2,3,4-tetrahydroisoquinoline-2-carbonyl)phenyl)-5-methyl-1H-pyrazole-3-carboxamide] | 7.52 | 6.70 |
| CCCCN(CCCC)C(=O)c1nn(-c2ccc(C(=O)NS(=O)(=O)c3ccc4c(Cl)ccc(Br)c4c3)cc2C(=O)N2CCc3ccccc3C2)c(C)c1Cl [Example 43, 1-(4-(8-bromo-5-chloronaphthalen-2-ylsulfonylcarbamoyl)-2-(1,2,3,4-tetrahydroisoquinoline-2-carbonyl)phenyl)-N,N-dibutyl-4-chloro-5-methyl-1H-pyrazole-3-carboxamide] | 7.70 | 8.41 |
| CCCCN(Cc1ccc(-c2ccc(CC(=O)O)cc2)cc1)C(=O)c1nn(-c2ccc(C(=O)NS(=O)(=O)c3ccc4c(c3)CCN4Cc3ccc(Cl)c(Cl)c3)cc2C(=O)N2CCc3ccccc3C2)c(C)c1Cl [Example 213, 2-(4′-((N-butyl-4-chloro-1-(4-(1-(3,4-dichlorobenzyl)indolin-5-ylsulfonylcarbamoyl)-2-(1,2,3,4-tetrahydroisoquinoline-2-carbonyl)phenyl)-5-methyl-1H-pyrazole-3-carboxamido)methyl)biphenyl-4-yl)acetic acid] | 7.10 | 8.00 |
